Results taken from patent US10925913B2, “Low toxic tripterygium neoglycosides, preparation method and application thereof” (priority 2017, dated 2021).
Entries after “also recorded” stand apart in the source; their conditions may differ.

How the values were obtained:
[1] = test system: normal T and B lymphocytes; assay: Immunosuppressive activity: inhibition of normal T/B lymphocyte increment (MTT); type: cell-based, rat; settings: FIG. 4
Description: The rats were sacrificed by neck amputation and soaked in 75% ethanol. The spleens of the rats were taken out in an ultra-clean bench, washed in DPBS for 3 times, fully moistened, 200 mesh gauze was placed on a dish (35 mm diameter), it is evenly ground in one direction by a piston of a 10 mL syringe, the spleen was moistened with DPBS while grinding. The collected lymphocyte suspension was centrifuged at 1500 rpm for 3 min, and 7 mL of erythrocyte lysate was added to each spleen suspension. After acting at room temperature for 30 min, the cells were centrifuged at 1500 rpm for 3 min. After discarding supernatant, the cells were washed with DPBS for 3 times to remove excess serum, added with […] of 70% Percoll to the bottom layer of 15 mL centrifuge tube and […] of 40% Percoll to the upper layer of 15 mL centrifuge tube, then centrifuged 800 g at room temperature for 20 min on a horizontal centrifuge.

induced T/B lymphocyte = assay: Specific inhibition experiment: Con A- or LPS-induced T/B lymphocyte increment (MTT); type: cell-based, rat; settings: FIG. 5
Description: The pretreatment of lymphocytes in the specific inhibition experiment is the same as above. After lymphocytes inoculated into 96-well culture plates, drug was added. 200 μL of drug was added each to blank control group (culture medium only), T lymphocyte specific increment inducer Con A model group (5 μg/mL, corresponding model group) and B lymphocyte specific increment inducer LPS model group (5 μg/mL, corresponding model group). Con A administration group was firstly added multiple doses of T lymphocyte specific increment inducer Con A 100 μL ([…], corresponding model group) separately, and then added 100 μL of triptriolide (100, 200, 300, 400 μg/mL) with different concentrations separately. In LPS administration group, multiple doses of B lymphocyte specific increment inducer LPS 100 μL ([…], corresponding model group) were added respectively, and 100 μL of triptriolide (100, 200, 300, 400 μg/mL) with different concentrations were added respectively.

Raw264.7 cells = assay: Anti-inflammatory activity in LPS-induced Raw264.7 cell inflammation model; type: cell-based, rat
Description: Raw264.7 37° C., 5% CO2 RPMI-1640+10% FBS+1% Pen Strep. Finally, the cell was cultured in an incubator until 80% of the cells adhere to the wall. The cells in logarithmic growth phase were taken and adjusted to the appropriate cell density in a 96-well plate after digestion with 0.25% trypsin. After adhering to the wall in monolayer, the cell was cultured in a synchronized medium for 12 hours. After entering the quiescent period, except for the blank control group, 1 mL of LPS (1 μg/mL) was used as a modeling agent in other groups to induce the cell inflammation model in the cell in each group. Meanwhile, drug treatment is carried out: 1 mL of culture medium was added to the model group, 1 mL of liquid drug with corresponding concentration was added to the drug administration group (triptolide 50, 100, 150, 200 μg/mL dose group), and 2 ml of culture medium was directly added to the blank control group. Western blot, qPCR, ELISA and other methods were used to detect the expression levels of inflammation-related proteins, genes, cytokines, the expressions of NF-κB transcription-related factors, and the expressions of IL-6, IL-10, TNF-α and other inflammatory cytokines in different treatment groups.

podocyte cell line MPCS = assay: Protection of podocytes from ADM-induced apoptosis; type: cell-based, rat
Description: Rat immortalized podocyte cell line MPCS is presented by nephrology department of Guangdong provincial hospital of Traditional Chinese Medicine. The treatment methods of […] are presented as follows: Western blot, IFC, qPCR, ELISA and other methods are used to detect the expression levels of inflammation-related proteins, genes and cytokines in different treatment groups. The podocyte cell is temperature sensitive cell, increases at 33° C. RPMI-1640+10% FBS+1% Pen Strep+10 U/mL γ-IFN, and differentiates at 37° C. RPMI-1640+10% FBS+1% Pen Strep medium for 10-14 days. […] The expression of podocaine membrane protein podocine and apoptosis-related gene Bax were detected by flow cytometry using FITC-labeled Annexin V and Propidium iodide (PI) to differentiate early apoptotic cells from late apoptotic cells and dead cells.

[2] = test system: rat with ear swelling model; settings: Zheng Jiarun, et al., 1991; cited from earlier work

SMILES: CC(C)[C@]1(O)[C@H](O)[C@@H]2O[C@]23[C@]2(O[C@H]2C[C@H]2C4=C(CC[C@@]23C)C(=O)OC4)[C@@H]1O [triptriolide]
- inhibiting increment of normal T and B lymphocytes in vitro ([1]; 50, 100, 150, 200 μg/mL, 24 h, MTT): dose-dependent
- cell activity of normal T and B lymphocytes ([1]; each administration group, p<0.05): significantly lower than that of the control group and model group
- immunosuppressive effect (induced T/B lymphocyte; Con A-induced T vs LPS-induced B lymphocytes): lower immunosuppressive effect; also recorded: on T lymphocytes is significantly higher than that on B lymphocytes
- cell activity of Con A- / LPS-induced lymphocytes (induced T/B lymphocyte; different concentrations, 24 h, MTT): higher than that of the blank control group, but lower than that of the model group
- effects of inflammatory factors TNF-α and IL-10 (Raw264.7 cells; FIGS. 7 and 8): effectively reduce
- cytokine secretion in LPS-induced inflammatory injury model (Raw264.7 cells; LPS 1 μg/mL, FIG. 6): can improve cytokine secretion
- expression of IL-10 (Raw264.7 cells; at high concentration): can be increased
- apoptosis of podocytes (podocyte cell line MPCS; 0.8 μg/mL ADM apoptosis model, FIGS. 9 to 11): attenuated
- apoptosis of podocytes at high concentration (podocyte cell line MPCS; 0.8 μg/mL ADM, high concentration): upward trend
- anti-inflammatory activity [2]: weak anti-inflammatory activity
- immunosuppressive activity [2]: no immunosuppressive activity
